This note sets out measurements from BindingDB's records for doi:10.1111/j.1747-0285.2009.00902.x (Institut Des BiomolÉCules Max Mousseron (Ibmm), 2009).

Values joined by “and” are separate entries in the source; they are usually repeats but may differ in a detail not shown here. Equal entries are not always repeated.

For orientation: Ki means the dissociation constant of the complex between target and ligand, obtained from inhibition or displacement. Low values mean a stronger hold on the target, high ones a looser hold on the target.

In this test the target is Carbonic anhydrase 6 (Homo sapiens, UniProt P23280). As to the kind of experiment: Enzyme Inhbition Assay. Particulars: pH 7.5; 20 °C.
Sequence of Carbonic anhydrase 6 (P23280 whole entry): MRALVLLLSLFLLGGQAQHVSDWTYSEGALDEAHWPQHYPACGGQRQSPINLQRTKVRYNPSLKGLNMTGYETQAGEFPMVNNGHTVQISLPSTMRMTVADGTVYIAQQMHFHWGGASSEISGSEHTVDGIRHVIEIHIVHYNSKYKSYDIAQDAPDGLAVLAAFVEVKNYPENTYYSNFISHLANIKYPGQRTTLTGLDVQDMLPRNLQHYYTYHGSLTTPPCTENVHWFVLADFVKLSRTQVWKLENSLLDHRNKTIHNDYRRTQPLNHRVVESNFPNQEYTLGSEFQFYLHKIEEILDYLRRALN

On to `NS(=O)(=O)c1ccc(NC2OCC(O)C(O)C2O)cc1` (configuration not stated), for which the Ki was 3.5 nM and 5.1 nM and 0.56 nM.
`CC1OC(Nc2ccc(S(N)(=O)=O)cc2)C(O)C(O)C1O` (configuration not stated): the Ki is 3.4 nM and 13 nM.
